pEC50, pIC50: −log10 of the molar value. Where a name gives a salt, the structure may show the parent alone. Read-outs that look alike come from different tables or passages of the source.
Legend:
P. falciparum Dd2-HLH [1] = assay: microbe, parasite or virus in culture; type: cell-based, Plasmodium falciparum; conditions: read-out: Blood stage 48h EC50
[2] = molecular target: P. berghei-luciferase sporozoites; assay: microbe, parasite or virus in culture; type: cell-based, Plasmodium berghei; conditions: read-out: Liver stage 48h EC50
P. falciparum Dd2-HLH [3] = assay: microbe, parasite or virus in culture; type: cell-based, Plasmodium falciparum; conditions: read-out: Blood stage 72h EC50
HepG2 cells [4] = system: HepG2 cells
HEK293T cells [5] = system: HEK293T cells
HEK293T cells [6] = assay: Mammalian cell cytotoxicity assay, HEK293T (CellTiter-Glo, 72 h); conditions: read-out: HEK CC50
HepG2 cells [7] = assay: Mammalian cell cytotoxicity assay, HepG2 (CellTiter-Glo, 72 h); conditions: read-out: HEP CC50
in vitro [8] = conditions: human
in vitro [9] = conditions: human; remark: listed apart in the source
[10] = system: P. falciparum blood-stage; design: method as in PMID 28874661; conditions: read-out: EC50 against P. falciparum blood-stage growth in vitro; cited from earlier work
PfPKG = conditions: read-out: IC50 in PfPKG kinase assays; cited from earlier work
[11] = Mammalian cell cytotoxicity assay, HepG2 (CellTiter-Glo, 72 h); conditions: human
[12] = system: P. falciparum (NF54 drug-sensitive strain); design: method as in PMID 28446690; conditions: read-out: EC50 against intraerythrocytic lifecycle stages of P. falciparum; cited from earlier work
[13] = P. falciparum blood-stage parasites, 48 hours in culture
[14] = liver-stage parasites, 48 hours in culture
[15] = P. falciparum blood-stage parasites, 72 hours in culture
[16] = Plasmodium falciparum, DD2, 48 h
[17] = Plasmodium berghei, HepG2, liver-stage parasites, 48 hours in culture
[18] = Plasmodium falciparum, DD2, 72 h

SMILES	pEC50 (P. falciparum Dd2-HLH [1]; [13])	pEC50 [2, 14]	pEC50 (P. falciparum Dd2-HLH [3]; [15])	CC50 (HepG2 cells [4])	CC50 (HEK293T cells [5])	other results
CC(C)CCNC(=O)C(CC(C)C)NC(=O)C1OC1C(=O)O (stereo not drawn) [EP-475]	6.57	< 5.00	6.50	> 9990 nM	> 9950 nM	
CCN(CC)CC(O)CNc1c2ccc(Cl)cc2nc2ccc(OC)cc12 (stereo not drawn) [Acranil]	8.10	6.51	7.70			CC50 (HEK293T cells [6]; HEK293T cells): 1430 nM; CC50 (HepG2 cells [7]; HepG2 cells): 1110 nM
CCOC(=O)[C@@H]1O[C@H]1C(=O)NC(CC(C)C)C(=O)N1CCN(Cc2ccc(OC)c(OC)c2OC)CC1 (stereo partly drawn) [NCO 700]	7.80	< 5.00	7.48	> 9950 nM	> 9950 nM	
O=C(CC1c2ccccc2C(=O)N1c1ccc2ccc(Cl)nc2n1)N1CCC2(CC1)OCCO2 (stereo not drawn) [Pazinaclone]	7.11	< 5.00	6.37			CC50 (HEK293T cells [6]; HEK293T cells): > 9950 nM; CC50 (HepG2 cells [7]; HepG2 cells): > 9950 nM
C=C/C=C/C[C@@H](C)[C@@H](O)[C@H]1C(=O)N[C@@H](CC)C(=O)N(C)CC(=O)N(C)[C@@H](CC(C)C)C(=O)N[C@@H](C(C)C)C(=O)N(C)[C@@H](CC(C)C)C(=O)N[C@@H](C)C(=O)N[C@H](C)C(=O)N(C)[C@@H](CC(C)C)C(=O)N(C)[C@@H](CC(C)C)C(=O)N(C)[C@@H](C(C)C)C(=O)N1C [Voclosporin]			6.60			CC50 (HEK293T cells [6]; HEK293T cytotoxicity): > 9950 nM; CC50 (HepG2 cells [7]; HepG2 cytotoxicity): > 9950 nM
Oc1ccc(CCN2CCC(Nc3nc4ccccc4n3Cc3ccc(F)cc3)CC2)cc1 [Desmethylastemizole]	7.64	7.15	7.33			CC50 (HEK293T cells [6]; HEK293T cytotoxicity): 5920 nM; CC50 (HepG2 cells [7]; HepG2 cytotoxicity): 58 nM
CCCC1(CCC)CCC2(CCN(CCCN(CC)CC)C2)CC1 [Atiprimod dimaleate]	7.37	5.13	6.37			CC50 (HEK293T cells [6]; HEK293T cells): 1720 nM; CC50 (HepG2 cells [7]; HepG2 cells): 2990 nM
CCN(CCO)CCCOc1ccc2c(Nc3cc(CC(=O)Nc4cccc(F)c4)n[nH]3)ncnc2c1 [Barasertib-HQPA]						pEC50 (P. falciparum Dd2-HLH [1]; [16]): 6.60; CC50 (in vitro [8]): > 9.95 µM; pEC50 [2, 17]: 5.34; CC50 (in vitro [9]): > 9.99 µM; pEC50 (P. falciparum Dd2-HLH [3]; [18]): 6.27
CCC(CC)Nc1cc(C)nc(Oc2c(C)cc(C)cc2C)c1C [CP-376395]	6.08	5.20	6.05			CC50 (HEK293T cells [6]; HEK293T cells): > 9950 nM; CC50 (HepG2 cells [7]; HepG2 cells): 2500 nM
COc1ccc(C)cc1NC(=O)Nc1nc2ccc(Nc3ncnc4cc(OCCCN5CCN(C)CC5)c(OC)cc34)cc2s1 [Compound 4SC-203]		5.48	6.14	4690 nM	3000 nM	
Cc1cn2c(-c3ccnc(NCC4CC4)n3)c(-c3ccc(F)c(NS(C)(=O)=O)c3)nc2cc1CN(C)C [ML10]						pEC50 [10]: 8.68; pIC50 (PfPKG): 9.80
CCNCc1cncc(-c2ccc3[nH]nc(-c4nc5c(F)cc(F)cc5[nH]4)c3c2)c1C [AG-024322]		5.52	6.37	112 nM	145 nM	
Cn1/c(=N\C#N)n(-c2ccc(C(C)(C)C#N)nc2)c2c3cc(-c4cnc(N)c(C(F)(F)F)c4)ccc3ncc21 [Panulisib]	7.72	7.11	6.80	10 nM	11 nM	
CN(C)CCNc1nc2cc(O)ccc2c2c1C(=O)c1ccccc1-2 [TAS-103]	6.24	5.82	6.12			CC50 (HEK293T cells [6]; HEK293T cytotoxicity): 334 nM; CC50 (HepG2 cells [7]; HepG2 cytotoxicity): 766 nM
CCCNCC(O)COc1ccccc1C(=O)CCc1ccccc1 (stereo not drawn) [Propafenone SR]				> 9990 nM	> 9950 nM	pEC50 (P. falciparum Dd2-HLH [1]): 6.60; pEC50 [2]: < 5.00; pEC50 (P. falciparum Dd2-HLH [3]): 6.25
Cc1cc(-c2cc(O)ccc2Cl)cc2nnc(Nc3ccc(OCCN4CCCC4)cc3)nc12 [TG 100572 (Hydrochloride)]	6.91	6.19	6.23			CC50 (HEK293T cells [6]; HEK293T cells): 1730 nM; CC50 (HepG2 cells [7]; HepG2 cells): 3440 nM
CN(C)CCOc1ccc2[nH]c(C(=O)NCC#Cc3ccc(C(=O)NO)cc3)cc2c1 [CRA-026440]	7.82	5.60	7.20	107 nM	836 nM	
CCCCCN=C(N)Nc1nc(-c2cnc(C)[nH]2)cs1 [CP 66948]	6.21	< 5.00	6.01	> 9950 nM	> 9950 nM	
CCN(CC)CCN1C(=O)c2c(c3c4cccc(Cl)c4n([C@@H]4O[C@H](CO)[C@@H](OC)[C@H](O)[C@H]4O)c3c3[nH]c4c(Cl)cccc4c23)C1=O [Becatecarin]		5.15	6.71	158 nM	143 nM	
NC(=O)C(c1ccccc1)(c1ccccc1)[C@@H]1CCN(CCc2ccc3c(c2)CCO3)C1 [Darifen/Acin Hydrobromide]						pEC50 (P. falciparum Dd2-HLH [1]; [16]): 5.84; CC50 (in vitro [8]): > 9.95 µM; pEC50 [2, 17]: < 5.00; pEC50 (P. falciparum Dd2-HLH [3]; [18]): 6.49; CC50 at 72 h [11]: > 9990 nM
O=C1c2ccccc2C(=O)c2sc(-c3ccco3)nc21 [INO-5042]		5.68	6.39	705 nM	1330 nM	
Cc1cc2c(C(N)=O)cccc2n1-c1nc2c(c(NCc3ccccc3)n1)COCC2 [CB-5083]						pEC50 (P. falciparum Dd2-HLH [1]; [16]): 6.63; CC50 (in vitro [8]): 0.469 µM; pEC50 ([2]; Plasmodium berghei, HepG2, 48 h): 6.27; pEC50 (P. falciparum Dd2-HLH [3]; [18]): 6.22; CC50 at 72 h [11]: 468 nM
CS(=O)(=O)c1ccc(-c2cnc(N)c(-c3ccc(C(F)(F)F)nc3)c2)cc1 [MMV390048]						pEC50 [12]: 7.55
CCCCCCCCN=c1ccn(CCCCCCCC)cc1 [Pirtenidine]		6.08	6.21			CC50 (HEK293T cells [6]; HEK293T cells): 279 nM; CC50 (HepG2 cells [7]; HepG2 cells): 1080 nM
NC(=O)[C@@H](CC1CC1)[C@@H](CCC(F)(F)F)C(=O)N[C@H]1N=C(c2ccccc2)c2cccc(F)c2NC1=O [BMS-983970]	7.20	6.99	7.08	59 nM	> 9950 nM	

From article PMC11145868, “Protein target similarity is positive predictor of in vitro antipathogenic activity: a drug repurposing strategy for Plasmodium falciparum” (Journal of Cheminformatics, 2024)
